What is called IC50 is the concentration needed to halve the response being measured.

The subject of this test is U87MG cells. Kind of test: Cellular assay, inhibition of 2-HG production in U87MG cells. The test is classed as cell-based. The conditions noted are these: Homo sapiens, U-87 MG, 48 h. The essentials:
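HT1080 or U87MG cells (U87MG kept with 500 ug/mL G418) seeded at 5000 cells/well and treated with compound at 0.2% final DMSO. Incubated 48 h at 37 °C. 2-HG inhibition determined by LC-MS. Viability read by CellTiter-Glo luminescence at 72 h post-dose.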

In turn, `CS(=O)(=O)Nc1cccc(N(C(=O)[C@@H]2CCC(=O)N2c2cc(C#N)ccn2)[C@H](C(=O)NC2CC(F)(F)C2)c2ccccc2Cl)c1` [Compound 159, (S)—N—((S)-1-(2-Chlorophenyl)-2-(3,3-difluorocyclobutylamino)-2-oxoethyl)-1-(4-cyanopyridin-2-yl)-N-(3-(methylsulfonamido)phenyl)-5-oxopyrrolidine-2-carboxamide] displayed an IC50 of less than 100 nM.

Compound `N#Cc1ccnc(N2C(=O)OC[C@H]2C(=O)N(c2cccc(F)c2)[C@H](C(=O)NC2CCC(F)(F)CC2)c2ccccc2Cl)c1` [Compound 78, (S)—N—((S)-1-(2-Chlorophenyl)-2-((4,4-difluorocyclohexyl)amino)-2-oxoethyl)-3-(4-cyano-pyridin-2-yl)-N-(3-fluorophenyl)-2-oxooxazolidine-4-carboxamide] came in with an IC50 of less than 100 nM. In the case of `O=C(NC1CC(F)(F)C1)[C@H](c1ccccc1Cl)N(C(=O)[C@@H]1COC(=O)N1c1cscn1)c1cccc(F)c1` [Compound 72, (S)—N—((S)-1-(2-Chlorophenyl)-2-((3,3-difluorocyclobutyl)amino)-2-oxoethyl)-N-(3-fluorophenyl)-2-oxo-3-(thiazol-4-yl)oxazolidine-4-carboxamide], the IC50 was less than 100 nM. The value for `CC(C)(O)c1cc(F)cc(N(C(=O)[C@@H]2CCC(=O)N2c2cc(C#N)ccn2)[C@H](C(=O)NC2CC(F)(F)C2)c2ccccc2Cl)c1` [Compound 150, (S)—N—((S)-1-(2-Chlorophenyl)-2-(3,3-difluorocyclobutylamino)-2-oxoethyl)-1-(4-cyanopyridin-2-yl)-N-(3-fluoro-5-(2-hydroxypropan-2-yl)phenyl)-5-oxopyrrolidine-2-carboxamide] was less than 100 nM; that for `N#Cc1ccnc(N2C(=O)[C@@H](O)C[C@H]2C(=O)N(c2cc(F)cc(F)c2)[C@H](C(=O)NC2CC(F)(F)C2)c2ccccc2Cl)c1` [Compound 171, (2S,4S)—N—((S)-1-(2-Chlorophenyl)-2-((3,3-difluorocyclobutyl)amino)-2-oxoethyl)-1-(4-cyano-pyridin-2-yl)-N-(3,5-difluorophenyl)-4-hydroxy-5-oxopyrrolidine-2-carboxamide] was less than 100 nM; that for `N#Cc1ccnc(N2C(=O)[C@H](O)C[C@H]2C(=O)N(c2cc(F)cc(F)c2)[C@@H](C(=O)NC2CC(F)(F)C2)c2ccccc2Cl)c1` [Compound 114, (2S,4R)—N—((R)-1-(2-Chlorophenyl)-2-((3,3-difluorocyclobutyl)amino)-2-oxoethyl)-1-(4-cyanopyridin-2-yl)-N-(3,5-difluorophenyl)-4-hydroxy-5-oxopyrrolidine-2-carboxamide] was less than 100 nM. Turning to `N#Cc1ccnc(N2C(=O)CC[C@H]2C(=O)N(c2cccc(C3CC3)c2)[C@H](C(=O)NC2CC(F)(F)C2)c2ccccc2Cl)n1` [Compound 182, (S)—N—((S)-1-(2-Chlorophenyl)-2-((3,3-difluorocyclobutyl)amino)-2-oxoethyl)-1-(4-cyanopyrimidin-2-yl)-N-(3-cyclopropylphenyl)-5-oxopyrrolidine-2-carboxamide], the IC50 was less than 100 nM. `N#Cc1ccnc(N2C(=O)CC[C@H]2C(=O)N(c2cc(F)cc(F)c2)[C@H](C(=O)NC2CC(F)(F)C2)c2ccc(Cl)cc2Cl)c1` [Compound 196, (S)-1-(4-Cyanopyridin-2-yl)-N—((S)-1-(2,4-dichlorophenyl)-2-((3,3-difluorocyclobutyl)-amino)-2-oxoethyl)-N-(3,5-difluorophenyl)-5-oxopyrrolidine-2-carboxamide] had an IC50 of less than 100 nM. Regarding `CC(=O)N1CC(=O)N(c2cc(C#N)ccn2)[C@H](C(=O)N(c2cccc(F)c2)[C@H](C(=O)NC2CC(F)(F)C2)c2ccccc2Cl)C1` [Compound 92, (S)-4-Acetyl-N—((S)-1-(2-chlorophenyl)-2-(3,3-difluorocyclobutylamino)-2-oxoethyl)-1-(4-cyanopyridin-2-yl)-N-(3-fluorophenyl)-6-oxopiperazine-2-carboxamide], the IC50 was less than 100 nM. The value for `O=C(NC1CCC(F)(F)CC1)[C@H](c1ccccc1Cl)N(C(=O)[C@@H]1CCC(=O)N1c1cscn1)c1cccc(F)c1` [Compound 74] was less than 100 nM; that for `N#Cc1ccnc(N2C(=O)CC[C@H]2C(=O)N(c2cncc(F)c2)C(C(=O)NC2CC(F)(F)C2)c2ccccc2Cl)c1` (stereo partly shown) [Compound 91] was less than 100 nM; that for `CC(C)(O)c1cc(F)cc(N(C(=O)[C@@H]2CCOC(=O)N2c2cc(C#N)ccn2)[C@H](C(=O)NC2CC(F)(F)C2)c2ccccc2Cl)c1` [Compound 146, (S)—N—((S)-1-(2-Chlorophenyl)-2-(3,3-difluorocyclobutylamino)-2-oxoethyl)-3-(4-cyanopyridin-2-yl)-N-(3-fluoro-5-(2-hydroxypropan-2-yl)phenyl)-2-oxo-1,3-oxazinane-4-carboxamide] was less than 100 nM. For `N#Cc1ccnc(N2C(=O)CC[C@H]2C(=O)N(c2cccc(F)c2)[C@H](C(=O)NC2CCC(F)(F)CC2)c2ccccc2Cl)n1` [Compound 85, (S)—N—((S)-1-(2-Chlorophenyl)-2-((4,4-difluorocyclohexyl)amino)-2-oxoethyl)-1-(4-cyanopyrimidin-2-yl)-N-(3-fluorophenyl)-5-oxopyrrolidine-2-carboxamide] the value was less than 100 nM; for `N#Cc1cccc(N(C(=O)[C@@H]2CCC(=O)N2c2cc(C#N)ccn2)[C@H](C(=O)NC2CC(F)(F)C2)c2ccccc2Cl)c1` [Compound 128, (S)—N—((S)-1-(2-Chlorophenyl)-2-((3,3-difluorocyclobutyl)amino)-2-oxoethyl)-N-(3-cyano-phenyl)-1-(4-cyanopyridin-2-yl)-5-oxopyrrolidine-2-carboxamide], less than 100 nM. The value for `CC(C)(C)OC(=O)N1CC(=O)N(c2cc(C#N)ccn2)[C@H](C(=O)N(c2cccc(F)c2)[C@H](C(=O)NC2CC(F)(F)C2)c2ccccc2Cl)C1` [Compound 89, (3S)-tert-Butyl 3-((1-(2-chlorophenyl)-2-((3,3-difluorocyclobutyl)amino)-2-oxoethyl)(3-fluorophenyl)carbamoyl)-4-(4-cyanopyridin-2-yl)-5-oxopiperazine-1-carboxylate] was less than 100 nM; that for `O=C(NC1CC(F)(F)C1)[C@H](c1ccccc1Cl)N(C(=O)[C@@H]1COC(=O)N1c1ncccn1)c1cccc(F)c1` [Compound 9, (S)—N—((S)-1-(2-chloro-phenyl)-2-(3,3-difluorocyclo-butylamino)-2-oxoethyl)-N-(3-fluorophenyl)-2-oxo-3-(pyrimidin-2-yl)oxazolidine-4-carboxamide] was less than 100 nM; that for `CNS(=O)(=O)c1cccc(N(C(=O)[C@@H]2CCC(=O)N2c2cc(C#N)ccn2)[C@H](C(=O)NC2CC(F)(F)C2)c2ccccc2Cl)c1` [Compound 157] was less than 100 nM.

Turning to `N#Cc1ccnc(N2C(=O)CC[C@H]2C(=O)N(c2cc(F)cc(F)c2)[C@H](C(=O)NC2CC(F)(F)C2)c2ccccc2Cl)c1F` [Compound 88, (S)—N—((S)-1-(2-Chlorophenyl)-2-((3,3-difluorocyclobutyl)amino)-2-oxoethyl)-1-(4-cyano-3-fluoropyridin-2-yl)-N-(3,5-difluorophenyl)-5-oxopyrrolidine-2-carboxamide], the IC50 is less than 100 nM. In turn, `N#Cc1cc(C#N)cc(N(C(=O)[C@@H]2CCC(=O)N2c2cc(C#N)ccn2)[C@H](C(=O)NC2CC(F)(F)C2)c2ccccc2Cl)c1` [Compound 153, (S)—N—((S)-1-(2-Chlorophenyl)-2-((3,3-difluorocyclobutyl)amino)-2-oxoethyl)-1-(4-cyanopyridin-2-yl)-N-(3,5-dicyanophenyl)-5-oxopyrrolidine-2-carboxamide] showed an IC50 of less than 100 nM. For `CN1CC(=O)N(c2cc(C#N)ccn2)[C@H](C(=O)N(c2cc(F)cc(F)c2)[C@H](C(=O)NC2CC(F)(F)C2)c2ccccc2Cl)C1` [Compound 101, (S)—N—((S)-1-(2-chlorophenyl)-2-((3,3-difluorocyclobutyl)amino)-2-oxoethyl)-1-(4-cyanopyridin-2-yl)-N-(3,5-difluorophenyl)-4-methyl-6-oxopiperazine-2-carboxamide] the value was less than 100 nM; for `N#Cc1ccnc(N2C(=O)OCC[C@H]2C(=O)N(c2cncc(F)c2)[C@H](C(=O)NC2CCC(F)(F)CC2)c2ccccc2Cl)c1` [Compound 137, (S)—N—((S)-1-(2-Chlorophenyl)-2-((4,4-difluorocyclohexyl)amino)-2-oxoethyl)-3-(4-cyano-pyridin-2-yl)-N-(5-fluoropyridin-3-yl)-2-oxo-1,3-oxazinane-4-carboxamide], less than 100 nM.

With `CC(C)(O)c1cc(F)cc(N(C(=O)[C@@H]2COC(=O)N2c2cc(C#N)ccn2)C(C(=O)NC2CC(F)(F)C2)c2ccccc2Cl)c1` (stereo partly drawn) [Compound 145, (4S)—N-(1-(2-Chlorophenyl)-2-(3,3-difluorocyclobutylamino)-2-oxoethyl)-3-(4-cyanopyridin-2-yl)-N-(3-fluoro-5-(2-hydroxypropan-2-yl)phenyl)-2-oxooxazolidine-4-carboxamide], the 50% inhibitory concentration (IC50) was less than 100 nM.

In turn, `N#Cc1ccnc(N2C(=O)CC[C@H]2C(=O)N(c2cc(F)cc(F)c2)[C@H](C(=O)NC2CC(F)(F)C2)c2c(Cl)cccc2Cl)c1` [Compound 199, (S)-1-(4-Cyanopyridin-2-yl)-N—((S)-1-(2,6-dichlorophenyl)-2-((3,3-difluorocyclobutyl)amino)-2-oxoethyl)-N-(3,5-difluorophenyl)-5-oxopyrrolidine-2-carboxamide] yielded an IC50 of less than 100 nM. The value for `N#Cc1ccnc(N2C(=O)CC[C@H]2C(=O)N(c2ccccc2F)[C@H](C(=O)NC2CC(F)(F)C2)c2ccccc2Cl)c1` [Compound 187, (S)—N—((S)-1-(2-Chlorophenyl)-2-((3,3-difluorocyclobutyl)amino)-2-oxoethyl)-1-(4-cyanopyridin-2-yl)-N-(2-fluorophenyl)-5-oxopyrrolidine-2-carboxamide] was less than 100 nM; that for `N#Cc1ccnc(N2C(=O)CC[C@H]2C(=O)N(c2cccc(F)c2)[C@H](C(=O)NC2CC(F)(F)C2)c2ccccc2Cl)c1F` [Compound 82, (S)—N—((S)-1-(2-Chlorophenyl)-2-((3,3-difluorocyclobutyl)amino)-2-oxoethyl)-1-(4-cyano-3-fluoropyridin-2-yl)-N-(3-fluorophenyl)-5-oxopyrrolidine-2-carboxamide] was less than 100 nM.

These data come from US10640534B2 (Agios Pharmaceuticals, Inc., priority 2012, dated 2020).
